Assay [1] can be described thus: Inhibition of class II FBA.
Assay [2] in a line: Inhibition of class I FBA. The arrangement: species or system Homo sapiens.
The species named for the next assay is Oryctolagus cuniculus. The experiment in a line: Inhibition of rabbit muscle NADH-dependent cytosolic glycerophosphate dehydrogenase.

Consider `O=C(CC(O)P(=O)(O)O)NO` (stereo not drawn), for which the Ki was found to be 418 µM in assay [1], 180 µM in assay [2] and 40 µM in the assay filed under Oryctolagus cuniculus.

With `O=C(COP(=O)(O)O)NO` [PHOSPHOGLYCOLOHYDROXAMATE], the results for the Ki (in assay [1]; in assay [2]; in the assay listed under Oryctolagus cuniculus) were 0.01 µM, 1 µM and 10 µM, respectively.

With `NC(CC(=O)NO)P(=O)(O)O` (stereo not drawn), the Ki in assay [1] is 3000 µM; in assay [2], 9000 µM; in the assay filed under Oryctolagus cuniculus, over 500 µM.

For the compound `O=C(CCP(=O)(O)O)NO`, the Ki in assay [1] was 145 µM; in assay [2], over 500 µM; in the assay listed under Oryctolagus cuniculus it was 6 µM.

In the case of `N/C(COP(=O)(O)O)=N/O`, the figures for the Ki (in assay [1]; in assay [2]; in the assay listed under Oryctolagus cuniculus) were 2.3 µM, over 1000 µM and 100 µM, respectively.

In the case of `NNC(=O)COP(=O)(O)O` [PHOSPHORIC ACID MONOHYDRAZINOCARBONYLMETHYL ESTER], the Ki is 0.34 µM in assay [1], 370 µM in assay [2] and over 500 µM in the assay filed under Oryctolagus cuniculus.

The term Ki denotes the equilibrium dissociation constant of an inhibitor or competing ligand from its target. Low values mean higher affinity, high ones lower affinity.

(Values after ChEMBL document CHEMBL1146280, “New competitive inhibitors of cytosolic (NADH-dependent) rabbit muscle glycerophosphate dehydrogenase” (Bioorg Med Chem Lett, 2007).)
